# Patent publication US7435837B2, “Dihydrobenzofuranyl alkanamine derivatives and methods for using same” (Wyeth, priority 2003, dated 2008)
# Read-outs that look alike come from different tables or passages of the source.
# What was measured:
# [1] = biological target: T1, human 5-hydroxytryptamine-2C (h5-HT2C) receptor (Homo sapiens, UniProt P28335); assay: [125I]DOI binding to membranes of CHO cells expressing the human 5-HT2C receptor; settings: [125I]DOI radioligand, CHO cell membranes, room temperature 60 min; read-out: 5-HT2C Affinity Ki
# T1 construct: expressed in transfected cells; host or cells: CHO (Chinese Hamster Ovary) cells; membranes
# T1 sequence (P28335 33-458): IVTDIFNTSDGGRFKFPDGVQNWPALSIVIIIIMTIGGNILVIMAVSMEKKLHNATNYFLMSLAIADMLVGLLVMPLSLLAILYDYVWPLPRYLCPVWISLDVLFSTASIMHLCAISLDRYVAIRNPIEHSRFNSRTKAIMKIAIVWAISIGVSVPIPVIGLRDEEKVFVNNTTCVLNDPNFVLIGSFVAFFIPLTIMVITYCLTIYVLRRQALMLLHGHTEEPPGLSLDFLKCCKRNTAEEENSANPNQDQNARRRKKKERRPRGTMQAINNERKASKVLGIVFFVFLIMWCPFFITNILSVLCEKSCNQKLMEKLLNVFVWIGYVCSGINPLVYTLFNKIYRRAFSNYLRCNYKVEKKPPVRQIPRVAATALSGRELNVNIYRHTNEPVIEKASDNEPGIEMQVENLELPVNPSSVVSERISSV
# human 5-HT2C receptor = biological target: T2, human 5-HT2C receptor (Homo sapiens, UniProt P28335); assay: 5-HT2C receptor-stimulated calcium mobilization (FLIPR) in CHO cells; format: cell-based; settings: for EC50: calcium mobilization, CHO cells stably expressing human 5-HT2C, read-out: 5-HT2C Function EC50; for Emax: CHO;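 on all read-outs here: Fluo-3-AM fluorescence read on FLIPR every 1 s, agonist added after 10 baseline reads, response taken as peak minus lowest raw fluorescence count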
# T2 sequence (P28335 33-458): T1 sequence (P28335 33-458)
# [2] = percentage of the response observed with a maximally effective concentration of 5-HT
# [3] = percentage of the response observed with a maximally effective concentration of 5-HT, read-out: 5-HT2C Function Emax (%)
Structure (SMILES),Ki [1] [nM],EC50 (human 5-HT2C receptor) [nM],5-HT2C Function Emax (%) (human 5-HT2C receptor; [2]),Emax (human 5-HT2C receptor; [3]) [%],"Emax (human 5-HT2C receptor; read-out: 5-HT2C Function Emax (%), percentage of the response observed with a maximally effective concentration of 5-HT) [%]"
"COc1cccc(-c2cccc3c2OC(CN)C3)c1OC (single isomer, unassigned; (-)) [Example 156]",4.7,6,,90,
"COc1cccc(-c2cccc3c2OC(CN)C3)c1OC (racemic) [Example 155, (±)-{[7-(2,3-dimethoxyphenyl)-2,3-dihydro-1-benzofuran-2-yl]methyl}amine]",9,43,,90,
"COc1ccc(OC)c(-c2cccc3c2OC(CN)C3)c1 (racemic) [Example 162, (±)-{[7-(2,5-dimethoxyphenyl)-2,3-dihydro-1-benzofuran-2-yl]methyl}amine]",13,24,,100,
"Cc1ccccc1-c1cc(Cl)cc2c1OC(CN)C2 (racemic) [Example 95, (±)-1-[5-chloro-7-(2-methylphenyl)-2,3-dihydro-1-benzofuran-2-yl]methanamine]",1,65,,100,
"NCC1Cc2cc(F)cc(-c3ccc(Cl)cc3Cl)c2O1 (racemic) [Example 216, (±)-{[7-(2,4-dichlorophenyl)-5-fluoro-2,3-dihydro-1-benzofuran-2-yl]methyl}amine]",0.7,0.2,,,100
"NCC1Cc2cc(F)cc(-c3ccccc3C(F)(F)F)c2O1 (single isomer, unassigned; (+)) [Example 152, (+)-1-{5-fluoro-7-[2-(trifluoromethyl)phenyl]-2,3-dihydro-1-benzofuran-2-yl}methanamine]",6.6,202,70,,
"NCC1Cc2cccc(-c3ccc(F)cc3F)c2O1 (single isomer, unassigned; (+)) [Example 147, (+)-1-[7-(2,4-difluorophenyl)-2,3-dihydro-1-benzofuran-2-yl]methanamine]",1.3,7,,90,
"Cc1ccccc1-c1cc(F)cc2c1OC(CN)C2 (single isomer, unassigned; (-)) [Example 106, (−)-1-[5-fluoro-7-(2-methylphenyl)-2,3-dihydro-1-benzofuran-2-yl]methanamine]",16,91,50,,
"NCC1Cc2cccc(-c3ccc(Cl)cc3Cl)c2O1 (single isomer, unassigned; (+)) [Example 150, (+)-1-[7-(2,4-dichlorophenyl)-2,3-dihydro-1-benzofuran-2-yl]methanamine]",4.1,74,100,,
"Cc1ccccc1-c1ccc(F)c2c1OC(CN)C2 (racemic) [Example 99, (±)-1-[4-fluoro-7-(2-methylphenyl)-2,3-dihydro-1-benzofuran-2-yl]methanamine]",21,838,,60,
"NCC1Cc2cccc(-c3ccc(C(F)(F)F)cc3)c2O1 (single isomer, unassigned; (+)) [Example 137, (+)-1-{7-[4-(trifluoromethyl)phenyl]-2,3-dihydro-1-benzofuran-2-yl}methanamine]",1.2,473,90,,
"NCC1Cc2cc(F)cc(-c3ccccc3Cl)c2O1 (racemic) [Example 100, (±)-1-[7-(2-chlorophenyl)-5-fluoro-2,3-dihydro-1-benzofuran-2-yl]methanamine]",0.2,120,,100,
"Cc1ccc(C)c(-c2cccc3c2OC(CN)C3)c1 (racemic) [Example 161, (±)-{[7-(2,5-dimethylphenyl)-2,3-dihydro-1-benzofuran-2-yl]methyl}amine]",8,32,,90,
"NCC1Cc2cc(F)cc(-c3ccccc3Cl)c2O1 (single isomer, unassigned; (+)) [Example 101, (+)-1-[7-(2-chlorophenyl)-5-fluoro-2,3-dihydro-1-benzofuran-2-yl]methanamine]",0.2,0.32,100,,
"Cc1cccc(-c2cccc3c2OC(CN)C3)c1 (single isomer, unassigned; (+)) [Example 42, (+)-1-[7-(3-methylphenyl)-2,3-dihydro-1-benzofuran-2-yl]methanamine]",17,162,,100,

# Further lines, with some results ahead:
Ki [1] [nM],EC50 (human 5-HT2C receptor) [nM],5-HT2C Function Emax (%) (human 5-HT2C receptor; [2]),Emax (human 5-HT2C receptor; [3]) [%],Structure (SMILES),"Emax (human 5-HT2C receptor; read-out: 5-HT2C Function Emax (%), percentage of the response observed with a maximally effective concentration of 5-HT) [%]"
0.4,6,100,,"Cc1cccc(C)c1-c1cc(F)cc2c1OC(CN)C2 (single isomer, unassigned; (-)) [Example 229, (−)-{[7-(2,6-dimethylphenyl)-5-fluoro-2,3-dihydro-1-benzofuran-2-yl]methyl}amine]",
38,740,,50,"CNCC1Cc2cc(F)cc(-c3cc(C)ccc3OC)c2O1 (racemic) [Example 457, (±)-{[5-fluoro-7-(2-methoxy-5-methylphenyl)-2,3-dihydro-1-benzofuran-2-yl]methyl}methylamine]",
0.48,2,,90,"CNCC1Cc2cc(Cl)cc(-c3cc(Cl)ccc3Cl)c2O1 (single isomer, unassigned; (+)) [Example 562, (+)-{[5-chloro-7-(2,5-dichlorophenyl)-2,3-dihydro-1-benzofuran-2-yl]methyl}methylamine]",
275,2920,,60,"NCC1Cc2cc(-c3ccccc3)cc(-c3ccccc3)c2O1 (racemic) [Example 344, (±)-[(5,7-diphenyl-2,3-dihydro-1-benzofuran-2-yl)methyl]amine]",
1.8,0.8,,100,"NCC1Cc2cc(Cl)cc(-c3c(Cl)cccc3Cl)c2O1 (racemic) [Example 263, (±)-{[5-chloro-7-(2,6-dichlorophenyl)-2,3-dihydro-1-benzofuran-2-yl]methyl}amine]",
0.8,7,,100,"COc1ccccc1-c1cc(C)cc2c1OC(CN)C2 (racemic) [Example 284, (±)-{[7-(2-methoxyphenyl)-5-methyl-2,3-dihydro-1-benzofuran-2-yl]methyl}amine]",
0.03,7,,90,"CNCC1Cc2cccc(-c3c(Cl)cccc3Cl)c2O1 (single isomer, unassigned; (-)) [Example 434, (−)-{[7-(2,6-dichlorophenyl)-2,3-dihydro-1-benzofuran-2-yl]methyl}methylamine]",
8,0.2,,90,"NCC1Cc2cccc(-c3c(Cl)cc(Cl)cc3Cl)c2O1 (racemic) [Example 166, (±)-{[7-(2,4,6-trichlorophenyl)-2,3-dihydro-1-benzofuran-2-yl]methyl}amine]",
128,112,,80,"NCC1Cc2cc(F)cc(-c3cccnc3)c2O1 (single isomer, unassigned; (-)) [Example 207, (−)-[(5-fluoro-7-pyridin-3-yl-2,3-dihydro-1-benzofuran-2-yl)methyl]amine]",
24,15,,100,"COc1cc2c(c(-c3ccc(Cl)cc3Cl)c1)OC(CN)C2 (racemic) [Example 365, (±)-{[7-(2,4-dichlorophenyl)-5-methoxy-2,3-dihydro-1-benzofuran-2-yl]methyl}amine]",
41,338,,60,"CNCC1Cc2cc(OC)cc(-c3cccc(Cl)c3Cl)c2O1 (racemic) [Example 495, (±)-{[7-(2,3-dichlorophenyl)-5-methoxy-2,3-dihydro-1-benzofuran-2-yl]methyl}methylamine]",
17,212,,80,"CNCC1Cc2cc(F)cc(-c3cc(Cl)ccc3OC)c2O1 (racemic) [Example 458, (±)-{[7-(5-chloro-2-methoxyphenyl)-5-fluoro-2,3-dihydro-1-benzofuran-2-yl]methyl}methylamine]",
0.2,5,,100,"CNCC1Cc2cc(C)cc(-c3ccccc3Cl)c2O1 (racemic) [Example 476, (±)-{[7-(2-chlorophenyl)-5-methyl-2,3-dihydro-1-benzofuran-2-yl]methyl}methylamine]",
0.13,22,,90,"Cc1cccc(C)c1-c1cc(Cl)cc2c1OC(CN)C2 (racemic) [Example 260, (±)-{[5-chloro-7-(2,6-dimethylphenyl)-2,3-dihydro-1-benzofuran-2-yl]methyl}amine]",
6.7,9,,80,"CNCC1Cc2cc(C)cc(-c3ccccc3OC)c2O1 (racemic) [Example 477, (±)-{[7-(2-methoxyphenyl)-5-methyl-2,3-dihydro-1-benzofuran-2-yl]methyl}methylamine]",
2.3,57,,90,"NCC1Cc2cc(F)cc(-c3ccncc3)c2O1 (racemic) [Example 209, (±)-[(5-fluoro-7-pyridin-4-yl-2,3-dihydro-1-benzofuran-2-yl)methyl]amine]",
